Test results as given in patent US7994140B2, “Classes of compounds that interact with GPCRs” (Alchemia Limited, priority 2002, dated 2011).

How the values were obtained:
[1] = target: T1, SST5 (Homo sapiens, UniProt P35346); test: GPCR radioligand binding (RLB) assay, somatostatin SST5, [125I]SST-14; conditions: 10 micromolar compound; recombinant human receptor membranes (HEK 293)
T1 construct: purchased Perkin Elmer BioSignal; host or cells: HEK 293
In short: (§1)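 Competition binding against radioligand ([125I]NDP-αMSH for MC4, [125I]SST-14 for SST5) on membranes of HEK 293 cells carrying the human receptor; buffer and incubation time optimized per receptor. Filtration through 0.5% PEI-treated glass fiber, washing, then scintillation counting.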

[2] = target: T2, MC4 (Homo sapiens, UniProt P32245); test: GPCR radioligand binding (RLB) assay, melanocortin MC4, [125I]NDP-αMSH; conditions: 10 micromolar compound; recombinant human receptor membranes (HEK 293)
T2 construct: purchased Perkin Elmer BioSignal; host or cells: HEK 293
T2 sequence (P32245 whole entry): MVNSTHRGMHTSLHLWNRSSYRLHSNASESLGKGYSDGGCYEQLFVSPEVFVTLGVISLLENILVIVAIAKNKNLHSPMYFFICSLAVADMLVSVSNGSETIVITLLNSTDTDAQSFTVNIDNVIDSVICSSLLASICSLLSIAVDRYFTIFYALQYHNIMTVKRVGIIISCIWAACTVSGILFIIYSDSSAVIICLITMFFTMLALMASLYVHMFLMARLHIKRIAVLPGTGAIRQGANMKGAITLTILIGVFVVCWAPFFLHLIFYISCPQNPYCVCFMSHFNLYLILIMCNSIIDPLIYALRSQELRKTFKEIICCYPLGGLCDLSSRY
In short: as §1

T1 sequence (P35346 whole entry): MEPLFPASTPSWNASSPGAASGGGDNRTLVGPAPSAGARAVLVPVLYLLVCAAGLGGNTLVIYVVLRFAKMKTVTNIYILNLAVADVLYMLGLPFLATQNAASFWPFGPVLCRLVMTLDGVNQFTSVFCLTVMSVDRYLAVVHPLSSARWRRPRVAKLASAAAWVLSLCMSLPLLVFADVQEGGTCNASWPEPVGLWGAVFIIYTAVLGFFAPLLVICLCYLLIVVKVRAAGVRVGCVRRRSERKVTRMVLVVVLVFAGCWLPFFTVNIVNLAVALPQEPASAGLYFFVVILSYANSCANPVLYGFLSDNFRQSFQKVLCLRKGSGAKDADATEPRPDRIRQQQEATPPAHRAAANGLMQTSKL

| SMILES | SST5 inhibition at 10 micromolar [1] | MC4 inhibition at 10 micromolar [2] |
| --- | --- | --- |
| COC1C(O)C(COCc2ccc3ccccc3c2)OC(OCc2ccc3ccccc3c2)C1NC(=O)CCCN (centres unmarked) [Compound 73] | + (Indicates inhibition greater than . . . 50%) | + (Indicates inhibition greater than . . . 50%) |
| COC1C(O)C(COCc2ccc(Cl)cc2)OC(OCc2ccc3ccccc3c2)C1NC(=O)CCCN (centres unmarked) [Compound 77] | + (Indicates inhibition greater than . . . 50%) | + (Indicates inhibition greater than . . . 50%) |
| COC1C(O)C(COCc2ccc3ccccc3c2)OC(OCc2ccccc2)C1NC(=O)CNC(=N)N (centres unmarked) [Compound 80] | + (Indicates inhibition greater than . . . 50%) | + (Indicates inhibition greater than . . . 50%) |
| COC1C(O)C(COCc2ccc(-c3ccccc3)cc2)OC(OCc2ccc(Cl)cc2)C1NC(=O)CCNC(=N)N (centres unmarked) [Compound 84] | + (Indicates inhibition greater than . . . 50%) | + (Indicates inhibition greater than . . . 50%) |
| COC1C(O)C(COCc2ccc(-c3ccccc3)cc2)OC(OCc2ccc(Cl)cc2)C1NC(=O)CCCNC(=N)N (centres unmarked) [Compound 86] | + (Indicates inhibition greater than . . . 50%) | + (Indicates inhibition greater than . . . 50%) |
| COC1C(O)C(COCc2ccc3ccccc3c2)OC(OCc2ccc(Cl)cc2)C1NC(=O)CNC(=N)N (centres unmarked) [Compound 87] | + (Indicates inhibition greater than . . . 50%) | + (Indicates inhibition greater than . . . 50%) |
| COC1C(O)C(COCc2ccc3ccccc3c2)OC(OCc2ccc(Cl)cc2)C1NC(=O)CCNC(=N)N (centres unmarked) [Compound 88] | + (Indicates inhibition greater than . . . 50%) | + (Indicates inhibition greater than . . . 50%) |
| COC1C(O)C(COCc2ccc3ccccc3c2)OC(OCc2ccc(Cl)cc2)C1NC(=O)CCCN (centres unmarked) [Compound 89] | + (Indicates inhibition greater than . . . 50%) | + (Indicates inhibition greater than . . . 50%) |
| COC1C(O)C(COCc2ccc3ccccc3c2)OC(OCc2ccc(Cl)cc2)C1NC(=O)CCCNC(=N)N (centres unmarked) [Compound 90] | + (Indicates inhibition greater than . . . 50%) | + (Indicates inhibition greater than . . . 50%) |
| CO[C@H]1[C@H](O)[C@@H](COCc2ccc(Cl)cc2)OC(OCc2ccc(Cl)cc2)[C@@H]1NC(=O)CCCN (some centres unmarked) [Compound 94] | + (Indicates inhibition greater than . . . 50%) | + (Indicates inhibition greater than . . . 50%) |
| CO[C@H]1[C@H](O)[C@@H](COCc2ccc(-c3ccccc3)cc2)OC(OCCc2ccccc2)[C@@H]1NC(=O)CCCN (some centres unmarked) [Compound 98] | + (Indicates inhibition greater than . . . 50%) | + (Indicates inhibition greater than . . . 50%) |
| CO[C@H]1[C@H](O)[C@@H](COCc2ccc3ccccc3c2)OC(OCCc2ccccc2)[C@@H]1NC(=O)CCCN (some centres unmarked) [Compound 102] | + (Indicates inhibition greater than . . . 50%) | + (Indicates inhibition greater than . . . 50%) |
| CO[C@H]1[C@H](O)[C@@H](COCc2ccc3ccccc3c2)OC(OCCc2ccccc2)[C@@H]1NC(=O)CCCNC(=N)N (some centres unmarked) [Compound 103] | + (Indicates inhibition greater than . . . 50%) | + (Indicates inhibition greater than . . . 50%) |
| CO[C@H]1[C@H](O)[C@@H](COCc2ccc(Cl)cc2)OC(OCCc2ccccc2)[C@@H]1NC(=O)CCCN (some centres unmarked) [Compound 106] | + (Indicates inhibition greater than . . . 50%) | + (Indicates inhibition greater than . . . 50%) |
| CSC1OC(COCc2ccccc2)C(O)C(OCc2ccccc2)C1NC(=O)CNC(=N)N (centres unmarked) [Compound 120] | + (Indicates inhibition greater than . . . 50%) | + (Indicates inhibition greater than . . . 50%) |
| CSC1OC(COCc2ccccc2)C(O)C(OCc2ccccc2)C1NC(=O)CCN (centres unmarked) [Compound 121] | + (Indicates inhibition greater than . . . 50%) | + (Indicates inhibition greater than . . . 50%) |
| CSC1OC(COCc2ccccc2)C(O)C(OCc2ccccc2)C1NC(=O)CCNC(=N)N (centres unmarked) [Compound 122] | + (Indicates inhibition greater than . . . 50%) | + (Indicates inhibition greater than . . . 50%) |
| CSC1OC(COCc2ccccc2)C(O)C(OCc2ccccc2)C1NC(=O)CCCNC(=N)N (centres unmarked) [Compound 124] | + (Indicates inhibition greater than . . . 50%) | + (Indicates inhibition greater than . . . 50%) |
| CSC1OC(COCc2ccc(Cl)cc2)C(O)C(OCc2ccccc2)C1NC(=O)CNC(=N)N (centres unmarked) [Compound 126] | + (Indicates inhibition greater than . . . 50%) | + (Indicates inhibition greater than . . . 50%) |
| CSC1OC(COCc2ccc(Cl)cc2)C(O)C(OCc2ccccc2)C1NC(=O)CCNC(=N)N (centres unmarked) [Compound 128] | + (Indicates inhibition greater than . . . 50%) | + (Indicates inhibition greater than . . . 50%) |
| CSC1OC(COCc2ccc(Cl)cc2)C(O)C(OCc2ccccc2)C1NC(=O)CCCN (centres unmarked) [Compound 129] | + (Indicates inhibition greater than . . . 50%) | + (Indicates inhibition greater than . . . 50%) |
| CSC1OC(COCc2ccc(Cl)cc2)C(O)C(OCc2ccccc2)C1NC(=O)CCCNC(=N)N (centres unmarked) [Compound 130] | + (Indicates inhibition greater than . . . 50%) | + (Indicates inhibition greater than . . . 50%) |
| CSC1OC(COCc2ccc(-c3ccccc3)cc2)C(O)C(OCc2ccccc2)C1NC(=O)CNC(=N)N (centres unmarked) [Compound 132] | + (Indicates inhibition greater than . . . 50%) | + (Indicates inhibition greater than . . . 50%) |
| CSC1OC(COCc2ccc(-c3ccccc3)cc2)C(O)C(OCc2ccccc2)C1NC(=O)CCN (centres unmarked) [Compound 133] | + (Indicates inhibition greater than . . . 50%) | + (Indicates inhibition greater than . . . 50%) |
| CSC1OC(COCc2ccc(-c3ccccc3)cc2)C(O)C(OCc2ccccc2)C1NC(=O)CCNC(=N)N (centres unmarked) [Compound 134] | + (Indicates inhibition greater than . . . 50%) | + (Indicates inhibition greater than . . . 50%) |
| CSC1OC(COCc2ccc(-c3ccccc3)cc2)C(O)C(OCc2ccccc2)C1NC(=O)CCCN (centres unmarked) [Compound 135] | + (Indicates inhibition greater than . . . 50%) | + (Indicates inhibition greater than . . . 50%) |
| CSC1OC(COCc2ccc(-c3ccccc3)cc2)C(O)C(OCc2ccccc2)C1NC(=O)CCCNC(=N)N (centres unmarked) [Compound 136] | + (Indicates inhibition greater than . . . 50%) | + (Indicates inhibition greater than . . . 50%) |
| CSC1OC(COCc2ccc3ccccc3c2)C(O)C(OCc2ccccc2)C1NC(=O)CN (centres unmarked) [Compound 137] | + (Indicates inhibition greater than . . . 50%) | + (Indicates inhibition greater than . . . 50%) |
